# Reference: patent US4626533A, “7-(2-thienylacetamido)-3-acylaminomethyl-cephalosporins” (Biogal Gyogyszergyar, priority 1983, dated 1986)
# System: Gram-negative strains
# Assay: MIC determination, Gram-negative strains
# Assay type: cell-based
# Conditions: range over Gram-negative strains
# Protocol: The examinations were carried out by using the bacteria strains listed hereinbelow: Gram-negative strains E. coli 35034 Klebsiella 52001 Klebsiella ATCC 1200 S. hartford 10063 P. mirabilis 60012 P. morganii 63002 P. rettgeri 65002 P. inconstans 67001 P. aeruginosa ATCC 27853
row,MIC [µg/mL],SMILES
1,> 100,"CC(=O)NCC1=C(C(=O)O)N2C(=O)C(NC(=O)CSc3nnc(-c4ccccc4)o3)[C@H]2SC1 (stereo partly drawn) [Example 8, 7-(2-phenyl-1,3,4-oxadiazole-5-ylthio)acetylamino-3-acetylaminomethylceph-3-em-4-carboxylic acid]"
2,> 100,"Cn1nnnc1SCC(=O)NC1C(=O)N2C(C(=O)O)=C(CNC(=O)c3c(Cl)cccc3Cl)CSC12 (stereo not drawn) [Example 14, 7-(1-methyl-1H-tetrazole-5-ylthio)acetamido-3-(2,6-dichlorobenzamino)methylceph-3-em-4-carboxylic acid]"
3,> 100,"O=C(CSc1nnc(-c2ccccc2)o1)NC1C(=O)N2C(C(=O)O)=C(CNC(=O)c3c(Cl)cccc3Cl)CS[C@H]12 (stereo partly drawn) [Example 15, 7-(2-phenyl-1,3,4-oxadiazole-5-ylthio)acetamido-3-(2,6-dichlorobenzoylamino)methylceph-3-em-4-carboxylic acid]"
